Test results as given in PubChem BioAssay (NCI).
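How tested: cells in 96-well plates exposed to compound for 48 hours at five concentrations. GI50 marks 50% less growth. TGI: total growth inhibition.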 Where a SMILES comes first, the peptide text is derived from it. The star is where a group is joined. Palmitoyl = CCCCCCCCCCCCCCCC(=O)*

Key:
Assay in all cases: NCI tumour cell line growth inhibition, 48 h
[1] = system: HCT-116 colon
[2] = system: TK-10 renal
[3] = system: RXF 393 renal
[4] = system: SNB-19 CNS
[5] = system: OVCAR-5 ovarian
[6] = system: SR leukemia
[7] = system: A498 renal
[8] = system: SNB-75 CNS
[9] = system: SF-295 CNS
[10] = system: UO-31 renal

Row | Compound | TGI [1] [µM] | TGI [2] [µM] | TGI [3] [µM] | TGI [4] [µM] | TGI [5] [µM] | TGI [6] [µM] | TGI [7] [µM] | TGI [8] [µM] | TGI [9] [µM] | TGI [10] [µM] | GI50 [8] [µM] | GI50 [3] [µM] | GI50 [4] [µM] | GI50 [5] [µM] | GI50 [6] [µM] | GI50 [9] [µM] | GI50 [10] [µM] | GI50 [7] [µM] | GI50 [1] [µM] | GI50 [2] [µM]
1 | Cc1c(-c2ccccc2)[nH]c2cc(Cl)ccc2c1=O | > 100 | > 100 | 79.5 | > 100 | > 100 | > 100 | > 100 | – | – | – | – | – | – | – | – | – | – | – | – | –
2 | Cn1c(-c2ccccc2)cc(-c2cccs2)c1-c1cccs1 | > 100 | – | > 100 | > 100 | > 100 | – | > 100 | > 100 | > 100 | > 100 | – | – | – | – | – | – | – | – | – | –
3 | c1ccc(-c2nc(N3CCNCC3)c3oc(-c4ccccc4)nc3n2)cc1 | – | – | 3.07 | 3.15 | 3.08 | 0.793 | 3.07 | 2.59 | 3.22 | 2.85 | 1.27 | 1.54 | 1.72 | 1.69 | 0.259 | 1.75 | 1.49 | 1.62 | – | –
4 | CCCC1CCC(=C2C(=O)CCC2=O)O1 (stereo not given) | > 100 | > 100 | > 100 | > 100 | > 100 | > 100 | – | > 100 | > 100 | > 100 | – | – | – | – | – | – | – | – | – | –
5 | C/C(=N/N=C(\[O-])c1ccncc1)C(F)(F)F.C/C(=N\N=C(/[O-])c1ccncc1)C(F)(F)F.[Ni+2] | – | – | – | > 1 | – | – | > 1 | > 1 | > 1 | – | > 1 | – | > 1 | – | – | > 1 | – | > 1 | – | –
6 | Nc1nc(Nc2ccccc2)c2[nH]cnc2n1 | > 100 | > 100 | > 100 | > 100 | – | – | 81.7 | > 100 | > 100 | > 100 | – | – | – | – | – | – | – | – | – | –
7 | CON(C)c1nc(N(C)OC)nc(N(C)OC)n1 | > 10 | > 10 | > 10 | > 10 | > 10 | > 10 | > 10 | > 10 | > 10 | > 10 | – | – | – | – | – | – | – | – | – | –
8 | COc1cc(C(C)O)c[n+](Cc2ccccc2)c1 (stereo not given) | > 100 | > 100 | > 100 | > 100 | > 100 | > 100 | > 100 | > 100 | > 100 | > 100 | – | – | – | – | – | – | – | – | – | –
9 | CCOC(=O)c1c(C)n(-c2ccc(Cl)cc2)c2c1cc(O)c1[nH]c3c(c12)CCCC3 | > 100 | > 100 | > 100 | > 100 | > 100 | 43.3 | > 100 | > 100 | > 100 | > 100 | – | – | – | – | – | – | – | – | – | –
10 | Nc1[nH]c(=O)nc2c1cnn2C1CCCCO1 (stereo not given) | > 100 | > 100 | > 100 | > 100 | > 100 | > 100 | > 100 | > 100 | > 100 | > 100 | – | – | – | – | – | – | – | – | – | –
11 | CCCCCCCCCCCCCCCC(=O)N1CCCC1C(=O)NCC(=O)NC(Cc1ccccc1)C(=O)NC(C)C(=O)NC(CO)C(=O)NC(Cc1ccc(O)cc1)C(=O)NC(CCCCN)C(=O)NC(CC(C)C)C(=O)NC(CCCN=C(N)N)C(=O)N1CCCC1C(=O)NCC(N)=O (stereo not given) (Palmitoyl-PGFASYKLRPG-NH2; configuration not given here) | 24.9 | 41.5 | 53.5 | 39.7 | 38.6 | 24.5 | > 100 | 43.5 | 67.1 | 52.1 | 22.9 | 24.7 | 18.4 | 15.4 | 12 | 27.3 | 21.9 | 37.4 | 12.1 | 18.4
12 | O[C@@]12Cc3c([nH]c4ccccc34)[C@@H]3Oc4cccc5c4[C@@]31CCN(CC1CC1)[C@@H]2C5 | – | 33.7 | – | 50.9 | 49.4 | > 100 | 40.5 | – | – | 32.9 | – | – | – | – | – | – | – | – | – | –
13 | CC(N)Cc1ccc(Cl)c(Cl)c1 (stereo not given) | > 100 | > 83 | 77.2 | > 100 | > 82.5 | 48.1 | > 90.6 | > 92.3 | > 80.1 | 66.3 | – | – | – | – | – | – | – | – | – | –
14 | CN1C(c2ccccc2)CC(=O)C(N)C1c1ccccc1 (stereo not given) | 34.2 | > 100 | > 31.6 | > 100 | > 70.8 | > 60.2 | > 100 | > 100 | > 100 | > 96.3 | – | – | – | – | – | – | – | – | – | –
15 | CC(C)C(C(=O)O)N1C(=O)c2ccccc2C1=O (stereo not given) | > 100 | > 100 | > 100 | > 100 | > 100 | – | > 100 | > 100 | > 100 | – | – | – | – | – | – | – | – | – | – | –
16 | Nc1nc(O)c2ncn([C@H]3CC[C@@H](CO)O3)c2n1 | > 100 | > 100 | > 100 | > 100 | > 100 | > 100 | > 100 | > 100 | > 100 | > 100 | – | – | – | – | – | – | – | – | – | –
17 | C[N+](C)(C)c1ncnc2c1ncn2C1CC(O)C(CO)O1 (stereo not given) | > 100 | > 100 | > 100 | > 100 | > 100 | > 100 | > 100 | > 100 | > 100 | > 100 | – | – | – | – | – | – | – | – | – | –
